Data: patent publication US20120034613A1, “Apparatus and Method for Testing Relationships Between Gene Expression and Physical Appearance of Skin” (NSE Products, Inc., priority 2010, published 2012)

Test system: EpidermFT™ Skin Model (EFT-400) full thickness skin cultures
Experiment: Affymetrix GeneChip HG U133 Plus 2.0 microarray global gene expression, agent-exposed vs untreated skin cultures
Type: cell-based, human
Conditions: Salicin 0.5%, 24 hr
[1] = 219471_at C13orf18 /// LOC728970

OCc1ccccc1O[C@@H]1O[C@H](CO)[C@@H](O)[C@H](O)[C@H]1O [Salicin, 2-(Hydroxymethyl)phenyl β-D-glucospyranoside]
Direction (215997_s_at CUL4B): up
Fold change (215997_s_at CUL4B): 2.138
Direction (217202_s_at GLUL): up
Fold change (217202_s_at GLUL): 2.106
Direction (217739_s_at NAMPT): up
Fold change (217739_s_at NAMPT): 2.155
Direction (218574_s_at LMCD1): up
Fold change (218574_s_at LMCD1): 2.123
Direction (218665_at FZD4): up
Fold change (218665_at FZD4): 2.078
Direction (218810_at ZC3H12A): up
Fold change (218810_at ZC3H12A): 2.117
Direction (219054_at C5orf23): up
Fold change (219054_at C5orf23): 2.096
Direction (219283_at C1GALT1C1): up
Fold change (219283_at C1GALT1C1): 2.107
Direction (219284_at HSPBAP1): up
Fold change (219284_at HSPBAP1): 2.08
Direction [1]: up
Fold change [1]: 2.12
Direction (219558_at ATP13A3): up
Fold change (219558_at ATP13A3): 2.138
Direction (219774_at CCDC93): up
Fold change (219774_at CCDC93): 2.13
Direction (219790_s_at NPR3): up
Fold change (219790_s_at NPR3): 2.115
Direction (220253_s_at LRP12): up
Fold change (220253_s_at LRP12): 2.096
Direction (221586_s_at E2F5): up
Fold change (221586_s_at E2F5): 2.079
Direction (221881_s_at CLIC4): up
Fold change (221881_s_at CLIC4): 2.109
Direction (223758_s_at GTF2H2): up
Fold change (223758_s_at GTF2H2): 2.138
Direction (224461_s_at AIFM2): up
Fold change (224461_s_at AIFM2): 2.132
Direction (224583_at COTL1): up
Fold change (224583_at COTL1): 2.077
Direction (224978_s_at USP36): up
Fold change (224978_s_at USP36): 2.122
Direction (225034_at ST3GAL1): up
Fold change (225034_at ST3GAL1): 2.099
Direction (225185_at MRAS): up
Fold change (225185_at MRAS): 2.155
Direction (225212_at SLC25A25): up
Fold change (225212_at SLC25A25): 2.108
Direction (225436_at FAM108C1): up
Fold change (225436_at FAM108C1): 2.142
Direction (225590_at SH3RF1): up
Fold change (225590_at SH3RF1): 2.104
Direction (225871_at STEAP2): up
Fold change (225871_at STEAP2): 2.153
Direction (226136_at GLIPR1): up
Fold change (226136_at GLIPR1): 2.104
Direction (226142_at GLIPR1): up
Fold change (226142_at GLIPR1): 2.129
Direction (226160_at H6PD): up
Fold change (226160_at H6PD): 2.103
Direction (226731_at PELO): up
Fold change (226731_at PELO): 2.098
Direction (226800_at EFCAB7): up
Fold change (226800_at EFCAB7): 2.156
Direction (228082_at ASAM): up
Fold change (228082_at ASAM): 2.108
Direction (228702_at FLJ43663): up
Fold change (228702_at FLJ43663): 2.156
Direction (228949_at GPR177): up
Fold change (228949_at GPR177): 2.105
Direction (228950_s_at GPR177): up
Fold change (228950_s_at GPR177): 2.126
Direction (229194_at PCGF5): up
Fold change (229194_at PCGF5): 2.107
Direction (229306_at FAM148B): up
Fold change (229306_at FAM148B): 2.129
Direction (229414_at PITPNC1): up
Fold change (229414_at PITPNC1): 2.108
Direction (229553_at PGM2L1): up
Fold change (229553_at PGM2L1): 2.113
Direction (229623_at FLJ12993): up
Fold change (229623_at FLJ12993): 2.132
Direction (230291_s_at NFIB): up
Fold change (230291_s_at NFIB): 2.15
Direction (232004_at HNRNPR): up
Fold change (232004_at HNRNPR): 2.126
Direction (232267_at GPR133): up
Fold change (232267_at GPR133): 2.135
Direction (232311_at B2M): up
Fold change (232311_at B2M): 2.121
Direction (235019_at CPM): up
Fold change (235019_at CPM): 2.117
Direction (235182_at ISM1): up
Fold change (235182_at ISM1): 2.138
Direction (235311_at FKBP14): up
Fold change (235311_at FKBP14): 2.153
Direction (236154_at QKI): up
Fold change (236154_at QKI): 2.103
Direction (238893_at LOC338758): up
Fold change (238893_at LOC338758): 2.075
Direction (239108_at FAR2): up
Fold change (239108_at FAR2): 2.081
Direction (239415_at MAP9): up
Fold change (239415_at MAP9): 2.126
Direction (240395_at LOC100128727): up
Fold change (240395_at LOC100128727): 2.078
Direction (241986_at BMPER): up
Fold change (241986_at BMPER): 2.136
Direction (243631_at LOC727815): up
Fold change (243631_at LOC727815): 2.087
Direction (243797_at STK17B): up
Fold change (243797_at STK17B): 2.09
Direction (244752_at ZNF438): up
Fold change (244752_at ZNF438): 2.083
Direction (1553962_s_at RHOB): up
Fold change (1553962_s_at RHOB): 2.094
